Measurements as given in patent US20220118121A1, “PROSTATE SPECIFIC MEMBRANE ANTIGEN (PSMA) LIGANDS WITH IMPROVED TISSUE SPECIFICITY” (Ruprecht-Karls-Universität Heidelberg, priority 2019, published 2022).
Where two headings read alike, the source gives them in different places. Where a SMILES comes first, the peptide text is derived from it. [ ]: non-standard residue; d: D form. The star is where a group is joined. DOTA = O=C(O)CN1CCN(CC(=O)O)CCN(CC(=O)*)CCN(CC(=O)O)CC1; EuK = O=C(O)CC[C@H](NC(=O)N[C@@H](CCCCN*)C(=O)O)C(=O)O; 2Nal = N[C@@H](Cc1ccc2ccccc2c1)C(=O)O; Trx = NC[C@H]1CC[C@H](C(=O)O)CC1

Columns and labels:
[1] = tested on: PSMA+ LNCaP cells; experiment: cell surface binding and internalization of radiolabeled compounds; type: cell-based; conditions: for Specific Cell Surface Binding / Specific Internalization / Cell Surface binding / Internalization: 68Ga-labeled; for Specific cell surface bound / Specific internalized: 177Lu-labeled, LNCaP cells
Method: (§1) PSMA^+ LNCaP cells (ATCC CRL-1740) were cultured in RPMI medium. Cells were grown at 37° C. in humidified air with 5% C02 and were harvested using trypsin-ethylenediaminetetraacetic acid.
(§2) The competitive cell binding assay and internalization experiments were performed according to Eder M et al. (2012), Bioconjug Chem 23(4):688.
For internalization experiments, 10^5 cells per well were seeded in poly-L-lysine coated 24-well cell culture plates 24 h before incubation. After washing, the cells were incubated with 30 nM of the ^68Ga- or ^177Lu-radiolabeled compound for 45 min at 37° C. and at 4° C., respectively. Cellular uptake was terminated by washing 3 times with 1 mL of ice-cold PBS. To remove surface-bound radioactivity, cells were incubated twice with 0.5 mL glycine-HCl in PBS (50 mM, pH=2.8) for 5 min. The cells were washed with 1 mL of ice-cold PBS and lysed using 0.3 N NaOH (0.5 mL). The surface-bound and the internalized fractions were measured in a gamma counter. The cell uptake was calculated as percent of the initially added radioactivity bound to 10^5 cells [% ID/10^5 cells].

[2] = target: T1, PSMA (Homo sapiens, UniProt Q04609); experiment: competitive cell binding assay vs 68Ga-labeled PSMA-10 on LNCaP cells
T1 construct: host or cells: LNCaP cells
T1 sequence (Q04609 whole entry): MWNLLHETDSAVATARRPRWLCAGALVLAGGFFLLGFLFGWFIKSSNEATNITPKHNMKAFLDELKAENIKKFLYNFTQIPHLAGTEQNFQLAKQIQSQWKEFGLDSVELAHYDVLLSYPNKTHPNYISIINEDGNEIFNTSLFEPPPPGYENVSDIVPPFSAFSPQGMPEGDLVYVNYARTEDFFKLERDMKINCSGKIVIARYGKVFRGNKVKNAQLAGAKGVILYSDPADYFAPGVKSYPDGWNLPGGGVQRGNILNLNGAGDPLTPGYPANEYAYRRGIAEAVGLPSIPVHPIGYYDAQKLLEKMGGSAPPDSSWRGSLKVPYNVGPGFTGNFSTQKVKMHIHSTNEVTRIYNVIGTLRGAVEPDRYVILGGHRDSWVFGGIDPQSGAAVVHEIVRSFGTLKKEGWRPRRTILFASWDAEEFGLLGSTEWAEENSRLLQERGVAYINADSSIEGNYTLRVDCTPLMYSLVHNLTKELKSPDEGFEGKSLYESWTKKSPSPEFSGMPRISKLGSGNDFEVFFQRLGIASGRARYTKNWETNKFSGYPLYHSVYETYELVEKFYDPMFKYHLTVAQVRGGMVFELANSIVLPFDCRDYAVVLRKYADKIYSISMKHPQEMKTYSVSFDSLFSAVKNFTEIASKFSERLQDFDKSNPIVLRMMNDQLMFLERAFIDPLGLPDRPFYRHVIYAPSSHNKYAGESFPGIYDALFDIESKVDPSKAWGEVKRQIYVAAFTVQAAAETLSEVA
Method: as §1, §2
Briefly, the cells (10^5 per well) were incubated with a 0.8 nM solution of ^68Ga-labeled radioligand [Glu-urea-Lys(Ahx)]2-HBED-CC (PSMA-10, precursor ordered from ABX, Radeberg, Germany) in the presence of 12 different concentrations of analyte (0-5000 nM, 100 μL/well). After incubation, the mixture was removed and the wells were washed 3 times with PBS using a multiscreen vacuum manifold (Millipore, Billerica, Mass.). Cell-bound radioactivity was measured using a gamma counter (Packard Cobra II, GMI, Minnesota, USA). The 50% inhibitory concentration (IC50) values were calculated by fitting the data using a nonlinear regression algorithm (GraphPad Software).

[3] = LNCaP cells, 0.8 nM 68Ga-PSMA-10 radioligand, read-out: Specific Binding Affinity IC50

IC50 [2, 3] [nM]	Compound	Specific Cell Surface Binding [1] [% ID/10^5 cells]	Specific Internalization [1] [% ID/10^5 cells]	Cell Surface binding ([1]; blocked) [% ID/10^5 cells]	Internalization ([1]; blocked) [% ID/10^5 cells]	Cell Surface binding ([1]; not blocked) [% ID/10^5 cells]	Internalization ([1]; not blocked) [% ID/10^5 cells]	Specific cell surface bound [1] [% ID/10^5 cells]	Specific internalized [1] [% ID/10^5 cells]	IC50 [2] [nM]
54 ± 20.9	O=C(O)CC[C@H](NC(=O)N[C@@H](CCCCNC(=O)[C@H](Cc1ccc2ccccc2c1)NC(=O)[C@H](Cc1c[nH]cn1)NC(=O)[C@H](Cc1c[nH]cn1)NC(=O)[C@H](Cc1c[nH]cn1)NC(=O)[C@H]1CC[C@H](CNC(=O)CN2CCN(CC(=O)O)CCN(CC(=O)O)CCN(CC(=O)O)CC2)CC1)C(=O)O)C(=O)O [PS10, DOTA-CHx-(H)3-2NaI-PSMA] ({DOTA-Trx}-HHH[2Nal]-EuK)	0.55 ± 0.08	0.44 ± 0.08	0.027 ± 0.006	0.083 ± 0.006	0.580 ± 0.046	0.523 ± 0.078			
56 ± 7.7	O=C(O)CC[C@H](NC(=O)N[C@@H](CCCCNC(=O)[C@H](Cc1c[nH]cn1)NC(=O)[C@H](CCC(=O)O)NC(=O)[C@H](Cc1c[nH]cn1)NC(=O)[C@H](CCC(=O)O)NC(=O)[C@H](Cc1c[nH]cn1)NC(=O)[C@H](CCC(=O)O)NC(=O)[C@H](Cc1ccc2ccccc2c1)NC(=O)[C@H]1CC[C@H](CNC(=O)CN2CCN(CC(=O)O)CCN(CC(=O)O)CCN(CC(=O)O)CC2)CC1)C(=O)O)C(=O)O [PS-1, DOTA-CHx-2NaI-(EH)3-PSMA] ({DOTA-Trx}-[2Nal]EHEHEH-EuK)	1.09 ± 0.17	0.46 ± 0.11	0.069 ± 0.013	0.212 ± 0.037	1.162 ± 0.183	0.676 ± 0.155	6.84 ± 0.06	4.32 ± 0.03	
37 ± 11.4	O=C(O)CC[C@H](NC(=O)N[C@@H](CCCCNC(=O)[C@H](Cc1ccc2ccccc2c1)NC(=O)[C@H]1CC[C@H](CNC(=O)[C@H](Cc2c[nH]cn2)NC(=O)[C@H](CCC(=O)O)NC(=O)[C@H](Cc2c[nH]cn2)NC(=O)[C@H](CCC(=O)O)NC(=O)[C@H](Cc2c[nH]cn2)NC(=O)[C@H](CCC(=O)O)NC(=O)CN2CCN(CC(=O)O)CCN(CC(=O)O)CCN(CC(=O)O)CC2)CC1)C(=O)O)C(=O)O [PS-2, DOTA-(EH)3-CHx-2NaI-PSMA] ({DOTA}-EHEHEH[Trx][2Nal]-EuK)	1.27 ± 0.15	0.61 ± 0.15	0.060 ± 0.017	0.187 ± 0.032	1.333 ± 0.127	0.797 ± 0.122	9.55 ± 1.61	6.00 ± 0.71	
43.1 ± 9.63	O=C(O)CC[C@H](NC(=O)N[C@@H](CCCCNC(=O)[C@H](Cc1ccc2ccccc2c1)NC(=O)[C@H](Cc1c[nH]cn1)NC(=O)[C@H](CCC(=O)O)NC(=O)[C@H](Cc1c[nH]cn1)NC(=O)[C@H](CCC(=O)O)NC(=O)[C@H](Cc1c[nH]cn1)NC(=O)[C@H](CCC(=O)O)NC(=O)[C@H]1CC[C@H](CNC(=O)CN2CCN(CC(=O)O)CCN(CC(=O)O)CCN(CC(=O)O)CC2)CC1)C(=O)O)C(=O)O [PS-3, DOTA-Chx-(EH)3-2NaI-PSMA] ({DOTA-Trx}-EHEHEH[2Nal]-EuK)	0.84 ± 0.03	0.24 ± 0.02	0.183 ± 0.025	0.317 ± 0.025	1.023 ± 0.140	0.557 ± 0.042			
46.7 ± 37.3	O=C(O)CC[C@H](NC(=O)N[C@@H](CCCCNC(=O)[C@H](Cc1ccc2ccccc2c1)NC(=O)[C@H]1CC[C@H](CNC(=O)[C@H](Cc2c[nH]cn2)NC(=O)[C@H](CCC(=O)O)NC(=O)[C@H](Cc2c[nH]cn2)NC(=O)[C@H](CCC(=O)O)NC(=O)[C@H](Cc2c[nH]cn2)NC(=O)[C@H](CCC(=O)O)NC(=O)[C@H](Cc2c[nH]cn2)NC(=O)[C@H](CCC(=O)O)NC(=O)CN2CCN(CC(=O)O)CCN(CC(=O)O)CCN(CC(=O)O)CC2)CC1)C(=O)O)C(=O)O [PS-4, DOTA-(EH)4-CHx-2NaI-PSMA] ({DOTA}-EHEHEHEH[Trx][2Nal]-EuK)	1.33 ± 0.09	0.52 ± 0.04	0.083 ± 0.029	0.151 ± 0.048	1.420 ± 0.113	0.676 ± 0.070			
27.9 ± 6.93	O=C(O)CC[C@H](NC(=O)N[C@@H](CCCCNC(=O)[C@H](Cc1ccc2ccccc2c1)NC(=O)[C@H]1CC[C@H](CNC(=O)[C@H](CCC(=O)O)NC(=O)[C@H](Cc2c[nH]cn2)NC(=O)[C@H](CCC(=O)O)NC(=O)[C@H](Cc2c[nH]cn2)NC(=O)[C@H](CCC(=O)O)NC(=O)[C@H](Cc2c[nH]cn2)NC(=O)CN2CCN(CC(=O)O)CCN(CC(=O)O)CCN(CC(=O)O)CC2)CC1)C(=O)O)C(=O)O [PS-4.2, DOTA-(HE)3-CHx-2NaI-PSMA] ({DOTA}-HEHEHE[Trx][2Nal]-EuK)	1.35 ± 0.28	0.71 ± 0.28	0.080 ± 0.010	0.113 ± 0.023	1.437 ± 0.138	0.676 ± 0.070			
	O=C(O)CC[C@H](NC(=O)N[C@@H](CCCCNC(=O)[C@H](Cc1ccc2ccccc2c1)NC(=O)[C@H]1CC[C@H](CNC(=O)[C@H](CCC(=O)O)NC(=O)[C@H](CCC(=O)O)NC(=O)[C@H](CCC(=O)O)NC(=O)CN2CCN(CC(=O)O)CCN(CC(=O)O)CCN(CC(=O)O)CC2)CC1)C(=O)O)C(=O)O [PS-5, DOTA-(E)3-CHx-2NaI-PSMA] ({DOTA}-EEE[Trx][2Nal]-EuK)	0.94 ± 0.13	0.63 ± 0.28	0.055 ± 0.013	0.095 ± 0.026	1.003 ± 0.127	0.725 ± 0.269			10.4 ± 2.94
28.6 ± 8.42	O=C(O)CC[C@H](NC(=O)N[C@@H](CCCCNC(=O)[C@H](CCC(=O)O)NC(=O)[C@H](CCC(=O)O)NC(=O)[C@H](CCC(=O)O)NC(=O)[C@H](Cc1ccc2ccccc2c1)NC(=O)[C@H]1CC[C@H](CNC(=O)CN2CCN(CC(=O)O)CCN(CC(=O)O)CCN(CC(=O)O)CC2)CC1)C(=O)O)C(=O)O [PS-6, DOTA-CHx-2NaI-(E)3-PSMA] ({DOTA-Trx}-[2Nal]EEE-EuK)	0.71 ± 0.12	0.45 ± 0.12	0.050 ± 0.020	0.156 ± 0.023	0.767 ± 0.156	0.607 ± 0.136			
78.6 ± 44.1	O=C(O)CC[C@H](NC(=O)N[C@@H](CCCCNC(=O)[C@H](Cc1c[nH]cn1)NC(=O)[C@H](Cc1c[nH]cn1)NC(=O)[C@H](Cc1c[nH]cn1)NC(=O)[C@H](Cc1ccc2ccccc2c1)NC(=O)[C@H]1CC[C@H](CNC(=O)CN2CCN(CC(=O)O)CCN(CC(=O)O)CCN(CC(=O)O)CC2)CC1)C(=O)O)C(=O)O [PS-8, DOTA-CHx-2NaI-(H)3-PSMA] ({DOTA-Trx}-[2Nal]HHH-EuK)	0.90 ± 0.03	0.51 ± 0.05	0.038 ± 0.010	0.093 ± 0.033	0.945 ± 0.030	0.600 ± 0.066			

Compound	IC50 [2, 3] [nM]	Specific Cell Surface Binding [1] [% ID/10^5 cells]	Specific Internalization [1] [% ID/10^5 cells]	Cell Surface binding ([1]; blocked) [% ID/10^5 cells]	Internalization ([1]; blocked) [% ID/10^5 cells]	Cell Surface binding ([1]; not blocked) [% ID/10^5 cells]	Internalization ([1]; not blocked) [% ID/10^5 cells]	Specific cell surface bound [1] [% ID/10^5 cells]	Specific internalized [1] [% ID/10^5 cells]	IC50 [2] [nM]
O=C(O)CC[C@H](NC(=O)N[C@@H](CCCCNC(=O)[C@H](Cc1ccc2ccccc2c1)NC(=O)[C@H]1CC[C@H](CNC(=O)[C@H](Cc2c[nH]cn2)NC(=O)[C@H](Cc2c[nH]cn2)NC(=O)[C@H](Cc2c[nH]cn2)NC(=O)CN2CCN(CC(=O)O)CCN(CC(=O)O)CCN(CC(=O)O)CC2)CC1)C(=O)O)C(=O)O [PS-7, DOTA-(H)3-CHx-2NaI-PSMA] ({DOTA}-HHH[Trx][2Nal]-EuK)	22.7 ± 6.47	0.69 ± 0.11	0.47 ± 0.11	0.123 ± 0.015	0.207 ± 0.021	0.817 ± 0.047	0.673 ± 0.093			
